Measurements from US11052072B2, “Pyrazolo[4,3-C] quinoline derivatives for inhibition of β-glucuronidase” (Kaohsiung Medical University, priority 2015, dated 2021).
Entries after “also recorded” stand apart in the source; their conditions may differ. Where two headings read alike, the source gives them in different places.

Key:
intestinal βG activity = test: In vivo image of intestinal β-glucuronidase activity (FDGlcU pro-probe); parameters: species or system Balb/cJ mice; conditions: mice; for Inhibition of intestinal βG activity (fluorescence signal in the intestine): oral 60 μg/200 μl per day for five days, FDGlcU on sixth day (FIG. 5A)
Protocol: 17 (TCH-3511) or 32 (TCH-3510) was examined for its inhibition against intestinal βG activity in mice by in vivo image of eβG activity. 5 (TCH-3562), 17 (TCH-3511) or 32 (TCH-3510) was dissolved in ddH2O. Healthy 6-10 week old female Balb/cJ mice were oral administrated with 5 (TCH-3562), 17 (TCH-3511), 32 (TCH-3510) or ddH2O per day (60 μg/200 μl) for five consecutive days. FDGlcU, a βG fluorescent pro-probe was oral feed at the sixth day. The βG activity was detected by in vivo optical imaging system.

endogenous eβG activity = target: T1, endogenous eβG activity (Escherichia coli, UniProt P05804); test: Endogenous β-glucuronidase activity assay in BL21 E. coli cells; format: cell-based; conditions: at both low (10 μM) or high concentration (50 μM) (FIG. 2)
T1 construct: endogenous in cells; host or cells: BL21 E. coli
Protocol: The pyrazolo[4,3-c]quinoline derivatives were examined for their inhibition against endogenous eβG activity. This assay is similar with the in vitro assay. BL21 E. coli cells were grown to an OD600 of 0.35 in LB medium. E. coli were 4 times diluted and incubated with each inhibitor. The endogenous eβG activity was measured by detecting PNP as described.

[1] = test system: CT26 murine colon adenocarcinoma cells; test: Anti-tumor efficacy of CPT-11 in CT26 tumor-bearing mice; format: in vivo, Balb/cJ mice; conditions: 3 mg/kg/day oral with CPT-11 50 mg/kg/day i.p.; CT26 tumors (FIG. 6B)
Protocol: (§1) FIGS. 6A and B show the effects of 17 (TCH-3511) on diarrhea and antitumor activity of CPT-11. Mice were inoculated with CT26 cells on day −7. Either water or 17 (TCH-3511) 3 mg/kg/day was orally administrated per day throughout the experimental period (day 0 onward). Mice were given daily intraperitoneal either CPT-11 treatment (50 mg/kg/day) or saline staring on day 2. Diarrhea level and tumor size was scored every other day.
(§2) 17 (TCH-3511) was given to mice to test whether inhibition of intestinal βG by bacterial inhibitor 17 (TCH-3511) eliminates CPT-11-induced diarrhea and maintain the therapeutic efficacy in combination with CPT-11 in tumor-bearing mice. CT26 murine colon adenocarcinoma cells were s.c. implanted into Balb/cJ mice. After solid tumor formed, 17 (TCH-3511) (3 mg/kg/day) was provided orally along with intraperitoneal injection of CPT-11 (50 mg/kg/day). Signs of diarrhea were according to stool forms and the perianal staining of the anus.

[2] = test system: DMH induced tumorigenesis in the intestine; test: DMH induced tumorigenesis in the intestine; format: in vivo, C57BL/6J-APC^MIN/J mice
Protocol: Either water or 17 (TCH-3511) 3 mg/kg/day was orally administrated three times per week throughout the experimental period (8 week). Mice were given intraperitoneal DMH (30 mg/kg/week).
17 (TCH-3511) was given to C57BL/6J-APC^MIN/J mice to check whether prevent DMH-induced intestinal damage and tumorigenesis. 17 (TCH-3511) (3 mg/kg, 3 times/week) was provided orally along with intraperitoneal injection of DMH (30 mg/kg, once/week). After 8 weeks of treatment, mice were sacrificed and the tumor in the intestine was examined.

[3] = target: T2, human liver-glucuronidase (hβG) (Homo sapiens, UniProt P08236); test: Inhibition of purified recombinant hβG activity (pNPG substrate, OD420); format: biochemical; conditions: read-out: Percent activity of human liver-glucuronidase at 10 μM (%)
T2 sequence (P08236 23-651): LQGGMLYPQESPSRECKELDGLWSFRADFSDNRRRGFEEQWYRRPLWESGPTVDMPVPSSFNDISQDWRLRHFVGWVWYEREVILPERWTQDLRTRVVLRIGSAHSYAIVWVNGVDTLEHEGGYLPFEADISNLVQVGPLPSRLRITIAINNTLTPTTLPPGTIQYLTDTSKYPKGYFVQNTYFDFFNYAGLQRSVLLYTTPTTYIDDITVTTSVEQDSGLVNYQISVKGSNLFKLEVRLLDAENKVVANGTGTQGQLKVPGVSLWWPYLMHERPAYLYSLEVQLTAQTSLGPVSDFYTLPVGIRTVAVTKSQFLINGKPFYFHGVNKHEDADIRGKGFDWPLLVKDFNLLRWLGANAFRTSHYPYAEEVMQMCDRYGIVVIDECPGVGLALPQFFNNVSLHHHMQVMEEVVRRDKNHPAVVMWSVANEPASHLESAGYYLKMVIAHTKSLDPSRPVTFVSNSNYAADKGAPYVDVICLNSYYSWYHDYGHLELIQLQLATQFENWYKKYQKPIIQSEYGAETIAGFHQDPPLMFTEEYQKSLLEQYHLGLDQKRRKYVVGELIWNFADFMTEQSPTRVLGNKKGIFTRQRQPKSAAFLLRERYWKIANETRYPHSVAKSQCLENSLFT
Protocol: (§3) The pyrazolo[4,3-c]quinoline derivatives were examined for their inhibition against eβG or hβG activity. Purified recombinant eβG or hβG proteins were incubated with serial dilution of the inhibitors, respectively. The βG activity was determined by color development of a βG substrate, pNPG. The hydrolysis product of pNPG, PNP was measured by OD420.

CPT-11 induced diarrhea = CPT-11 induced diarrhea in tumor-bearing mice; format: in vivo, Balb/cJ mice; conditions: 3 mg/kg/day oral with CPT-11 50 mg/kg/day i.p.; CT26 tumor-bearing mice (FIG. 6A)
Protocol: as §1, §2

TOP10 E. coli cells = test: E. coli growth assay (OD600); format: cell-based; conditions: 100 μM; OD600 at 6 hour after treatment; TOP10 E. coli (FIG. 4)
Protocol: The pyrazolo[4,3-c]quinoline derivatives were examined for effects on the growth of E. coli. TOP10 E. coli cells were grown to an OD600 of 0.35 in LB medium and treated with each inhibitor. E. coli cell cultures were monitored by reading OD600 at 6 hour after treatment. The cell viability were compared to non-inhibitor control group and shown in % control.

[4] = target: E. coli β-glucuronidase (eβG) (Escherichia coli, UniProt P05804); test: Inhibition of purified recombinant eβG activity (pNPG substrate, OD420); format: biochemical; conditions: for Inhibition efficacy of eβG activity compared with βG-Inh: FIG. 1; for remaining activity at 10 µM: read-out: Percent activity of E. coli-glucuronidase at 10 μM (%); for Selective inhibition of eβG versus hβG (in words): recombinant eβG and hβG, serial dilution of inhibitors (FIG. 1)
Protocol: as §3

[5] = 10 μM, purified recombinant hβG, pNPG, means ± S.D. of at least three separate experiments

Chain of E. coli β-glucuronidase (eβG) (P05804 whole entry): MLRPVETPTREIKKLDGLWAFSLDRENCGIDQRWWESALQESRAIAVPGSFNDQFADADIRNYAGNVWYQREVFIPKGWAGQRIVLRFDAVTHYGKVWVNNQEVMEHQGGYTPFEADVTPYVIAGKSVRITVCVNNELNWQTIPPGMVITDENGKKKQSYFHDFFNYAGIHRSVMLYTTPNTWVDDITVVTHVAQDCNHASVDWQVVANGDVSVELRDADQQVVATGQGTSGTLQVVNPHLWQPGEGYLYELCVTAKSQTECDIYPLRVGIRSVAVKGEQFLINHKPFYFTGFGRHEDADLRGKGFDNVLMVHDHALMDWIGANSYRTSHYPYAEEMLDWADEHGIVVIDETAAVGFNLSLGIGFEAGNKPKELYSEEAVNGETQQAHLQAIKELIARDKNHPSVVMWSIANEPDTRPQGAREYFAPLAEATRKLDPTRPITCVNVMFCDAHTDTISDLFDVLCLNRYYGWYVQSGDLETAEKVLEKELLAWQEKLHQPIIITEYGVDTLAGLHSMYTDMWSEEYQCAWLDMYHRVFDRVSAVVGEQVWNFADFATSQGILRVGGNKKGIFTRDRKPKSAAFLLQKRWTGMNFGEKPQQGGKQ
T1 sequence (P05804 whole entry): as above

| Compound | Inhibition of intestinal βG activity, comparison between compounds (intestinal βG activity; in vivo optical imaging (FIG. 5B)) | Inhibition of intestinal βG activity (fluorescence signal in the intestine) (intestinal βG activity; listed as 17 (TCH-3511)) | Inhibition efficacy of endogenous eβG activity compared with βG-Inh (endogenous eβG activity) | Effect on anti-tumor efficacy of CPT-11 treatment [1] | Number of tumors in the intestine ([2]; 3 mg/kg oral 3 times/week with DMH 30 mg/kg i.p. once/week, after 8 weeks (FIG. 7), DMH only group more than 26) | Effect on DMH-induced intestinal damage and tumorigenesis ([2]; 3 mg/kg oral 3 times/week with DMH 30 mg/kg/week i.p., 8 weeks (FIG. 7), listed as 17 (TCH-3511)) | remaining activity at 10 µM [3, 5] | Effect on CPT-11 induced diarrhea (CPT-11 induced diarrhea) | melting point | Effects on E. coli growth (TOP10 E. coli cells) | Inhibition efficacy of eβG activity compared with βG-Inh [4] | remaining activity at 10 µM [4] | Selective inhibition of eβG versus hβG (in words) [4] | Inhibition of intestinal βG activity (fluorescence signal in the intestine) (intestinal βG activity) | remaining activity at 10 µM [3] |
| --- | --- | --- | --- | --- | --- | --- | --- | --- | --- | --- | --- | --- | --- | --- | --- |
| Nc1n[nH]c2c1c(Nc1ccc(F)cc1)nc1ccccc12 [Compound 17, 3-Amino-4-(4-fluorophenylamino)-1H-pyrazolo[4,3-c]quinoline] | better than 32 (THC-3510) | significantly reduced the fluorescence signal in the intestine; also recorded: significantly inhibit intestinal βG activity | better inhibition efficacy of endogenous eβG activity than βG-Inh | no effects on the anti-tumor efficacy of CPT-11 treatment | six | can reduce DMH-induced intestinal damage and prevent tumorigenesis | 99 ± 1.41% | can reduce CPT-11 induced diarrhea | 266 to 268 °C | no effects on E. coli growth | better inhibition efficacy of eβG activity than βG-Inh | 5 ± 1% | selectively inhibited eβG activity but not hβG | – | – |
| Cc1ccc(Nc2nc3ccccc3c3[nH]nc(N)c23)cc1 [Compound 5, 3-Amino-4-(4-methylphenylamino)-1H-pyrazolo[4,3-c]quinoline] | – | – | better inhibition efficacy of endogenous eβG activity than βG-Inh | – | – | – | 110 ± 2.12% | – | 292 to 294 °C | no effects on E. coli growth | better inhibition efficacy of eβG activity than βG-Inh | 4.5 ± 0.71% | selectively inhibited eβG activity but not hβG | – | – |
| COc1ccccc1Nc1nc2ccccc2c2[nH]nc(N)c12 [Compound 32, 3-Amino-4-(2-methoxyphenylamino)-1H-pyrazolo[4,3-c]quinoline] | – | – | better inhibition efficacy of endogenous eβG activity than βG-Inh | – | – | – | – | – | 210 to 211 °C | no effects on E. coli growth | better inhibition efficacy of eβG activity than βG-Inh | 3.5 ± 0.71% | selectively inhibited eβG activity but not hβG | significantly inhibit intestinal βG activity | 103 ± 1.41% |
